Values quoted from earlier work as cited in EP0436316A1, “X-ray contrast media for prolonged opacification” (Sovak, Milos, priority 1989, dated 1991).

System: peritoneal surface
Settings: barium sulfate spilled into the abdomen after a perforation

O=S(=O)([O-])[O-].[Ba+2] [barium sulfate]
mortality rate of barium peritonitis: ~50%
